Laboratory results as given in patent publication US5063247A, “Diphenylurea derivatives” (Mitsubishi Kasei Corporation, priority 1989, dated 1991).

Assays:
cholesterol in serum [1] = test: Effect of reducing lipid level in blood: percent inhibition of cholesterol in serum of hamsters fed 1% cholesterol and 0.5% cholic acid diet; type: in vivo, Male golden Syrian hamsters; conditions: Mesocricetus auratus, po, 120 h, orally once a day for 5 days, relative to control group
Description: The effect of reducing a lipid level in blood by the action of the compounds according to the present invention was determined as follows:
Male golden Syrian hamsters weighing from 80 to 100 g were randomly divided into groups. The hamsters were first fed standard laboratory diets (solid feed MF-1 for mouse/rat/hamster, manufactured by Oriental Yeast Industries, KK) for 3 days. Then, they were fed the experimental diet containing 1% cholesterol and 0.5% cholic acid (manufactured by Oriental Yeast Industries, KK), ad libitum. At the same time, the compounds of the invention formulated in a shown dose (25 mg or 50 mg/10 ml water/kg) were administrated to the animals orally once a day at a determined time for 5 days. Water was administrated orally to the hamsters of control group in an amount of 10 ml per 1 kg of body weight. After five days of administrating the compounds, they were anesthetized with Pentobarbital Na (Nembutal injection, manufactured by Dainabbot) and three hours after the final administration of the test compound, a blood samples (2-3 ml) was taken from abdominal cava. The serum was separated by centrifuging.
The cholesterol level in the serum was determined by using a blood cholesterol measuring kit, Determina-TC5 manufactured by Kyowa Medix Co. The results are represented by percent inhibition (%) of cholesterol level in serum relative to that of the control group, and shown in the following Table 4, each compound number corresponding to that in the above Table 3.

[2] = biological target: ACAT (acyl coenzyme cholesterol acyltransferase); test: ACAT inhibitory action in hamster microsomes (cholesteryl-[14C] oleate formation); type: biochemical; conditions: radio-labelled oleoyl coenzyme A
Description: The ACAT inhibitory action of the compounds according to the present invention was measured as follows:
ACAT activity in the hamster microsomes was determined by measuring the rate of radio-active cholesteryl-[^14 C] oleate formation from cholesterol and radio-labelled oleoyl coenzyme A (^14 C) with or without test compound.
Calculations of IC50 value were made using data of the percent inhibition at each compound concentration. The results are shown in the following Table 5, each compound number corresponding to that in Table 3.

Acute toxicity test = conditions: rat, in vivo, po; P.O., suspended in 1% tragacanth solution, SD male and female rats, seven day observation
Description: A compound according to the present invention suspended in a 1% tragacanth solution was administrated orally to SD male and female rats. Then, the number of fatal rats was counted during seven day observation. The LD50 value is shown in the following Table 6, the compound number corresponding to that in the above Table 3.

cholesterol in serum [3] = test: Effect of reducing lipid level in blood: percent inhibition of cholesterol in serum of hamsters fed 1% cholesterol and 0.5% cholic acid diet; type: in vivo, Male golden Syrian hamsters; conditions: Mesocricetus auratus, po, 120 h, orally once a day for 5 days, relative to control group; remark: listed apart in the source

Structure (SMILES): CCCCCCCCc1ccc(NC(=O)Nc2c(C)cccc2C)cc1 [compound 5]
- inhibition in vivo at 25 mg/kg (cholesterol in serum [1]): 44%

Structure (SMILES): CCCCCCCCc1ccc(NC(=O)Nc2c(C(C)C)cccc2C(C)C)cc1 [Compound No. 8]
- inhibition in vivo at 25 mg/kg (cholesterol in serum [1]): 55%
- IC50 [2]: 4 nM
- LD50 at 168 h (Acute toxicity test): > 2000 mg/kg
- inhibition in vivo at 5 mg/kg (cholesterol in serum [3]): 35%

Structure (SMILES): CCCCCCCCCc1ccc(NC(=O)Nc2c(C(C)C)cccc2C(C)C)cc1 [Compound No. 19, 1-(4-nonylphenyl)-3-(2,6-diisopropylphenyl)urea]
- inhibition in vivo at 25 mg/kg (cholesterol in serum [1]): 64%
- IC50 [2]: 10 nM

Structure (SMILES): CCCCCCCc1ccc(NC(=O)Nc2c(C(C)C)cccc2C(C)C)cc1 [compound 18]
- inhibition in vivo at 25 mg/kg (cholesterol in serum [1]): 49%
- IC50 [2]: 6 nM

Structure (SMILES): CCCCCCCCc1ccc(NC(=O)Nc2c(Br)cccc2Br)cc1 [compound 4]
- inhibition in vivo at 25 mg/kg (cholesterol in serum [1]): 55%

Structure (SMILES): CCCCCCCCc1ccc(NC(=O)Nc2c(Cl)ccc(C)c2Cl)cc1 [compound 11]
- inhibition in vivo at 25 mg/kg (cholesterol in serum [1]): 47%

Structure (SMILES): CCCCCCCCc1ccc(NC(=O)Nc2c(Cl)cccc2Cl)cc1 [Compound No. 2, 1-(4-octylphenyl)-3-(2,6-dichlorophenyl)urea]
- inhibition in vivo at 25 mg/kg (cholesterol in serum [1]): 49%

Structure (SMILES): CCCCCCCCc1ccc(NC(=O)Nc2c(CC)cccc2CC)cc1 [compound 7]
- inhibition in vivo at 25 mg/kg (cholesterol in serum [1]): 48%

Structure (SMILES): CCCCCCCCc1ccc(NC(=O)Nc2c(OC)cccc2OC)cc1 [compound 12]
- inhibition in vivo at 25 mg/kg (cholesterol in serum [1]): 54%

Structure (SMILES): CC(C)c1cccc(C(C)C)c1NC(=O)Nc1ccc(C(C)(C)C)cc1 [Compound No. 26, reference compound]
- inhibition in vivo at 25 mg/kg (cholesterol in serum [1]): 19%

Structure (SMILES): CCCCCc1ccc(NC(=O)Nc2c(C(C)C)cccc2C(C)C)cc1 [compound 16]
- inhibition in vivo at 25 mg/kg (cholesterol in serum [1]): 34%

Structure (SMILES): CCCCCCCCCCc1ccc(NC(=O)Nc2c(C(C)C)cccc2C(C)C)cc1 [compound 20]
- inhibition in vivo at 25 mg/kg (cholesterol in serum [1]): 59%
- IC50 [2]: 12 nM

Structure (SMILES): CCCCCCCCc1ccccc1NC(=O)Nc1c(C(C)C)cccc1C(C)C [compound 13]
- inhibition in vivo at 25 mg/kg (cholesterol in serum [1]): 54%

Structure (SMILES): CCCCCCc1ccc(NC(=O)Nc2c(C(C)C)cccc2C(C)C)cc1 [compound 17]
- inhibition in vivo at 25 mg/kg (cholesterol in serum [1]): 60%
- IC50 [2]: 11 nM
